Source: paper PMC5074515 (PLoS ONE, 2016)
≈ marks a conversion by molar mass, not a printed value. Like-named read-outs stand apart in the source and are kept apart here.

Legend:
[1] = test system: Mtb H37Ra (ATCC 25177); assay: In vitro screen versus Mtb H37Ra (Alamar blue microdilution broth assay, MIC99); format: cell-based, M. tuberculosis; details: Mycobacterium tuberculosis
Method: The initial screening set and selected other compounds were tested for their inhibitory activity against Mtb H37Ra (ATCC 25177) and MAC NJ211 strains. Screening was performed at 1.28 and 12.8 μg/mL in Middlebrook 7H9 broth supplemented with 0.2% glycerol and ADC enrichment using a colorimetric (Alamar blue) microdilution broth assay by reported methods.[15]

[2] = test system: MAC NJ211; assay: In vitro screen versus MAC NJ211 (Alamar blue microdilution broth assay, MIC99); format: cell-based; details: for MIC99: read-out: MAC NJ211 MIC99
[3] = test system: tubulin; assay: Tubulin polymerization assay; format: biochemical, human; details: for IC50: mean ± standard deviation, at least three times per assay, NA = not active up to 100 μM; for effect on human tubulin: at 100 μM
[4] = molecular target: Mtb FtsZ (Mycobacterium tuberculosis, UniProt P9WN95); assay: biochemical; format: biochemical
[5] = test system: Vero cells; assay: Cytotoxicity (CC50) in Vero cells, TAACF; details: CC50 in Vero cells to IC90 against Mtb H37Rv
[6] = Cytotoxicity (CC50) in Vero cells, TAACF; details: African green monkey
[7] = test system: Mtb H37Rv; assay: TAACF Alamar blue assay against Mtb H37Rv (IC90); format: cell-based, M. tuberculosis; details: Mycobacterium tuberculosis
[8] = Rapid PK mouse model (bioavailability); details: mice, oral gavage, 300 mg/kg
[9] = Acute toxicity mouse model; format: in vivo, mice; details: single dose of 300 mg/kg
[10] = in vitro; details: African green monkey
[11] = test system: Mtb H37Rv; assay: In vitro qHTS assay against Mtb H37Rv (IC90); format: cell-based, M. tuberculosis; details: Mycobacterium tuberculosis, H37RV; for IC90: concentration that inhibits bacterial growth by 90%, read-out: Mtb H37Rv IC90
[12] = cited from earlier work
[13] = test system: M. tuberculosis 41 (Mtb 41) FtsZ reporter strain; format: cell-based
[14] = lowest drug concentration that completely inhibited growth, read-out: Mtb H37Ra MIC99
[15] = mean ± standard deviation, at least three times per assay, NA = not active up to 100 μM, read-out: Mtb FtsZ Polymerization IC50
[16] = lowest drug concentration that completely inhibited growth
[17] = same MIC99 given in μM, read-out: Mtb H37Ra MIC99 (concentration in μM in parentheses)

Mtb FtsZ, sequence (P9WN95 whole entry): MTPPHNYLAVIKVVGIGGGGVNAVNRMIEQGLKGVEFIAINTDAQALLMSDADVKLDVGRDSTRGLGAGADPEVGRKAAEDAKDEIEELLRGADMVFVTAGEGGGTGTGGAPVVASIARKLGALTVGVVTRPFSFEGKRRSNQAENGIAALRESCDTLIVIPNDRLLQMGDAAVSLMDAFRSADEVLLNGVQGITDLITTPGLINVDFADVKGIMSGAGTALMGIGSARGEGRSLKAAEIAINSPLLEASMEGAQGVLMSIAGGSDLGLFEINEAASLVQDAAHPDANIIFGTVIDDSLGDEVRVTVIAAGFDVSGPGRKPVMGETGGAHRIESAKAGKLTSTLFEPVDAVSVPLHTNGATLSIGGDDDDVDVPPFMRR

Structure (SMILES)	MIC99 [1, 14]	IC50 [3]	IC50 [4, 15]	MIC99 [1, 17]	MIC99 [2, 16]	IC90 [11]	further results
C=CCOc1c(Br)cc(S(=O)(=O)c2cc(Br)c(O)c(Br)c2)cc1Br [Compound 7, Zantrin Z4]	64 µg/mL	77 ± 3 µM	–	–	–	–	MIC99 [2]: > 64 µg/mL
CC[n+]1c(/C=C/N(C)c2ccccc2)n(-c2ccccc2)c2ccc(-c3nc4ccccc4s3)cc21 [Compound 8, Zantrin Z2]	–	> 100 µM	3.5 ± 0.3 µM	–	–	–	Selectivity Index (CC50/IC90) [5]: 1.09; CC50 [6]: 3.49 µM; IC90 ([7]; read-out: Mtb H37Rv IC90): 1.56 µg/mL; IC90 ([7]; read-out: Mtb H37Rv IC90 (concentration in µM in parentheses)): 3.2 µM; Bioavailability [8]: no bioavailability and None; MIC [1, 16]: 1 µg/mL; MIC [2, 16]: 1 µg/mL; ill effects to the mice [9]: no ill effects; CC50 [10]: 1.7 µg/mL
C[n+]1cc2c3c(ccc2c2ccc4cc5c(cc4c21)OCO5)OCO3 [Compound 10, Sanguinarine Cl‾ • H2O]	64 µg/mL	30 ± 7 µM	–	193 µM	> 64 µg/mL	–	IC50 [4]: 23 ± 4 µM
Nc1nonc1C(=O)N/N=C/c1cc(Cl)cc(Cl)c1O [Compound 12, ChemBridge 5481893]	64 µg/mL	–	33.4 ± 3 µM	202 µM	> 64 µg/mL	–	–
CC(C)c1c(O)ccc2c1CC[C@H]1C(C)(C)CCC[C@]21C [Compound 13, Totarol]	25 µg/mL	–	47.5 ± 4.9 µM	87.3 µM	25 µg/mL (≈ 87.3 µM)	–	–
CSc1ccc(/C=C2/C(C)=C(CC(=O)NCCN(C)C)c3cc(F)ccc32)cc1 [Compound 18, (Z)-N-(2-(dimethylamino)ethyl)-2-(5-fluoro-2-methyl-1-(4-(methylthio)benzylidene)-1H-inden-3-yl)acetamide]	8 µg/mL	–	39.4 ± 4.9 µM	19.5 µM	16 µg/mL (≈ 39 µM)	7.29 ± 0.23 µM	tolerated dose in mice ([12]; over 17 days): up to 300 mg/kg; effect on human tubulin [3]: no effect; effect on human tubulin ([3]; listed as SSA): no inhibition
CSc1ccc(/C=C2/C(C)=C(CC(=O)NCCN3CCCCC3)c3cc(F)ccc32)cc1 [Compound 24, (Z)-2-(5-Fluoro-2-methyl-1-(4-(methylthio)benzylidene)-1H-inden-3-yl)-N-(2-(piperidin-1-yl)ethyl)acetamide]	–	> 100 µM	26.5 ± 4.8 µM	–	–	1.41 ± 0.03 µM	melting point: 130 to 133 °C
CSc1ccc(/C=C2\C(C)=C(CC(=O)NCCN(C)C)c3cc(F)ccc32)cc1 [Compound 61, (E)-N-(2-(Dimethylamino)ethyl)-2-(5-fluoro-2-methyl-1-(4-(methylthio)benzylidene)-1H-inden-3-yl)acetamide]	16 µg/mL	–	44.6 ± 6.3 µM	–	16 µg/mL (≈ 39 µM)	7.7 ± 0.33 µM	–
COc1cc(/C=C2\C=C(CC(=O)NCCN(C)C)c3cc(F)ccc32)cc(OC)c1OC [Compound 62, (E)-N-(2-(dimethylamino)ethyl)-2-(5-fluoro-1-(3,4,5-trimethoxybenzylidene)-1H-inden-3-yl)acetamide]	32 µg/mL	–	43.3 ± 9.8 µM	72.5 µM	> 64 µg/mL	> 100 µM	inhibition at 50 µM ([11]; at 50 μM): 82%; FtsZ ring assembly in Mtb 41 [13]: inhibit FtsZ ring assembly; growth of Mtb 41 [13]: significant growth inhibition
COc1cc(/C=C2\C=C(CC(=O)NCCN3CCCC3)c3cc(F)ccc32)cc(OC)c1OC [Compound 63, (E)-2-(5-fluoro-1-(3,4,5-trimethoxybenzylidene)-1H-inden-3-yl)-N-(2-(pyrrolidin-1-yl)ethyl)acetamide]	32 µg/mL	–	37.6 ± 5.7 µM	68.5 µM	> 64 µg/mL	25.5 ± 0.33 µM	FtsZ ring assembly in Mtb 41 [13]: inhibit FtsZ ring assembly; growth of Mtb 41 [13]: significant growth inhibition; bacterial cell length of Mtb 41 ([13]; 75 μM, brightfield microscopy): clear increase in bacterial cell length
CSc1ccc(/C=C2/C(C)=C(CC(=O)O)c3cc(F)ccc32)cc1 [Sulindac sulfide, reference compound]	–	–	–	–	–	–	tolerated dose in mice ([12]; over 20 days): up to 50 mg/kg
